Like-named read-outs stand apart in the source and are kept apart here.
How the values were obtained:
[1] = tested on: vaccinia virus (strain Copenhagen); assay: microbe, parasite or virus in culture; assay type: cell-based
Vero cell culture = settings: African green monkey
[2] = tested on: cowpox virus (strain Grishak), CPXV
[3] = tested on: mousepox virus—ectromelia (strain K-1), ECTV
vaccinia virus = settings: cited from earlier work
VARV = settings: monkey, in vivo; cited from earlier work
[4] = in vivo; cited from earlier work
[5] = in vivo; cited from earlier work; remark: listed apart in the source
[6] = tested on: cowpox virus (strain Grishak), CPXV; assay: microbe, parasite or virus in culture; settings: Vero, read-out: IC50 CPXV
[7] = tested on: mousepox virus—ectromelia (strain K-1), ECTV; assay: microbe, parasite or virus in culture; settings: Vero, read-out: IC50 ECTV
orthopoxviruses = settings: cited from earlier work
cowpox virus = settings: cited from earlier work
ectromelia virus = settings: mouse, in vivo; cited from earlier work
[8] = Orthopoxvirus vaccinia, Vero, read-out: IC50, 50% virus-inhibiting concentration
[9] = Orthopoxvirus vaccinia, Vero, read-out: pIC50 (converted)

Row | Structure (SMILES) | SI, selectivity index (TC50/IC50) [1] | IC50 [1, 8] | IC50 [1, 9] | TC50, 50% cytotoxic concentration (Vero cell culture) | other results
1 | O=C(NC12CC3CC(CC(C3)C1)C2)c1ccccc1 [12a] | 23 | 4.7 ± 0.37 µM | 4.68 µM | 105.67 ± 19.14 µM | –
2 | Nc1ccn(C[C@@H](CO)OCP(=O)(O)O)c(=O)n1 [cidofovir, Cidofovir, reference compound] | 26 | 7.63 ± 3.15 µM | – | 201.33 ± 60.10 µM | SI CPXV (TC50/IC50) [2]: 9; SI ECTV (TC50/IC50) [3]: 31; selectivity index (SI), vaccinia virus (vaccinia virus): 12; efficacy when used after the onset of smallpox lesions (VARV): ineffective; oral bioavailability [4]: Low; nephrotoxicity [5]: significant; IC50 [6]: 23.5 ± 2.23 µM; IC50 [7]: 6.46 ± 3.1 µM
3 | O=C(NC1C2CC3CC(C2)CC1C3)c1ccccc1 (stereo not shown) [12b] | 15 | 6.73 ± 0.17 µM | 6.76 µM | 101.33 ± 6.11 µM | –
4 | O=C(NC12CC3CC(CC(C3)C1)C2)c1ccc(Br)cc1 [15a] | 3192 | 0.13 ± 0.08 µM | 0.129 µM | 415.00 ± 95.00 µM | SI CPXV (TC50/IC50) [2]: 1038; SI ECTV (TC50/IC50) [3]: 2767; IC50 [6]: 0.4 ± 0.24 µM; IC50 [7]: 0.15 ± 0.08 µM
5 | CN(C)CCOCC(=O)NC12CC3CC(CC(C3)C1)C2 [compound 4, tromantadine] | – | – | – | – | vaccinia virus inhibitory effects (vaccinia virus): pronounced
6 | O=C(NC1C2CC3CC(C2)CC1C3)c1ccc(Cl)cc1 (stereo not shown) [14b] | 578 | 0.18 ± 0.04 µM | 0.182 µM | 104.00 ± 8.72 µM | –
7 | O=C(NC12CC3CC(CC(C3)C1)C2)c1cccc([N+](=O)[O-])c1 [17a, N-(adamantan-1-yl)-3-nitrobenzamide] | 8 | 0.95 ± 0.03 µM | 0.955 µM | 7.75 ± 0.75 µM | –
8 | O=C(NC12CC3CC(CC(C3)C1)C2)c1ccc(C(F)(F)F)cc1 [compound 10] | – | – | – | – | selectivity index (orthopoxviruses): 2325
9 | O=C(NC12CC3CC(CC(C3)C1)C2)c1ccc(F)cc1 [13a] | 847 | 0.41 ± 0.1 µM | 0.407 µM | 347.31 ± 38.98 µM | SI CPXV (TC50/IC50) [2]: 125; SI ECTV (TC50/IC50) [3]: 250; IC50 [6]: 2.78 ± 0.42 µM; IC50 [7]: 1.39 ± 0.29 µM
10 | O=C1C2C3C=CC(C4CC34)C2C(=O)N1NC(=O)C12CC3CC(CC(C3)C1)C2 (stereo not shown) [compound 6] | – | – | – | – | effective concentration against vaccinia virus (vaccinia virus): below 0.05 μM; effective concentration against cowpox virus (cowpox virus): below 0.05 μM
11 | O=C(NN1C(=O)C2C3C=CC(C4CC34)C2C1=O)c1ccc(F)cc1 (stereo not shown) [compound 19] | – | – | – | – | IC50 (vaccinia virus; read-out: IC50 against vaccinia virus): < 0.05 µM
12 | Brc1ccc(NC2C3CC4CC(C3)CC2C4)cc1 (stereo not shown) [bromantane, reference compound] | 2 | 38.8 µM | 87.1 µM | – | IC50 ([1]; read-out: IC50, 50% virus-inhibiting concentration): 38.9 ± 0.49 µM
13 | O=C(NC1C2CC3CC(C2)CC1C3)c1ccc(Br)cc1 (stereo not shown) [15b] | 589 | 0.22 ± 0.07 µM | 0.219 µM | – | IC50 (vaccinia virus; read-out: IC50): 3.06 µM
14 | CC1(C)C2CCC1(C)C(NC(=O)c1ccc([N+](=O)[O-])cc1)C2 (stereo not shown) [compound 11] | – | – | – | – | selectivity index (orthopoxviruses): 31,500
15 | O=C(CNC1CCCCC1)NC12CC3CC(CC(C3)C1)C2 [compound 2] | – | – | – | – | vaccinia virus inhibitory effects (vaccinia virus): pronounced
16 | O=C(NC12CC3CC(CC(C3)C1)C2)c1ccc(Cl)cc1 [14a] | 2662 | 0.13 ± 0.08 µM | 0.135 µM | 346.00 ± 66.00 µM | SI CPXV (TC50/IC50) [2]: 653; SI ECTV (TC50/IC50) [3]: 935; IC50 [6]: 0.53 ± 0.37 µM; IC50 [7]: 0.37 ± 0.33 µM
17 | CCCCCCCCCCCCCCCCOCCCOP(=O)(O)CO[C@H](CO)Cn1ccc(N)nc1=O [CMX001, Brincidofovir] | – | – | – | – | protection against lethal infection with ectromelia virus (ectromelia virus): does not provide a sufficient level of protection
18 | O=C(NC12CC3CC(CC(C3)C1)C2)c1ccc([N+](=O)[O-])cc1 [18a] | 18,214 | 0.03 ± 0.01 µM | 0.0302 µM | 546.43 ± 23.98 µM | SI CPXV (TC50/IC50) [2]: 3036; SI ECTV (TC50/IC50) [3]: 6071; IC50 [6]: 0.18 ± 0.02 µM; IC50 [7]: 0.09 ± 0.017 µM
19 | O=C(N/N=C1/C(=O)Nc2ccccc21)NC1C2CC3CC(C2)CC1C3 (stereo not shown) [compound 1] | – | – | – | – | reduction in vaccinia virus reproduction (vaccinia virus): 42%
20 | O=C(NC1C2CC3CC(C2)CC1C3)c1ccc(F)cc1 (stereo not shown) [13b] | 49 | 2.14 ± 0.13 µM | 2.14 µM | 104.00 ± 8.72 µM | –
21 | O=C(NC1C2CC3CC(C2)CC1C3)c1ccccc1[N+](=O)[O-] (stereo not shown) [16b, N-(adamantan-2-yl)-2-nitrobenzamide] | – | – | – | >100 µM | –
22 | CC(=O)N(OCCN(C)C)C12CC3CC(CC(C3)C1)C2 [compound 3] | – | – | – | – | vaccinia virus inhibitory effects (vaccinia virus): pronounced
23 | O=C(NC1C2CC3CC(C2)CC1C3)c1cccc([N+](=O)[O-])c1 (stereo not shown) [17b, N-(adamantan-2-yl)-3-nitrobenzamide] | 10 | 0.99 ± 0.19 µM | 1 µM | 9.50 ± 0.87 µM | –
24 | O=C(NC1C2CC3CC(C2)CC1C3)c1ccc([N+](=O)[O-])cc1 (stereo not shown) [18b, N-(adamantan-2-yl)-4-nitrobenzamide] | 12,300 | 0.04 ± 0.01 µM | 0.0398 µM | 492.00 ± 31.00 µM | SI CPXV (TC50/IC50) [2]: 447; SI ECTV (TC50/IC50) [3]: 1093; IC50 [6]: 1.1 ± 0.22 µM; IC50 [7]: 0.45 ± 0.22 µM
25 | CC1(C)[C@H]2CC=C(CNC(=O)C34CC5CC(CC(C5)C3)C4)[C@@H]1C2 [compound 7] | – | – | – | – | selectivity index (SI), vaccinia virus (vaccinia virus): 1123; selectivity index (SI), cowpox virus (cowpox virus): 406
26 | O=C(NC12CC3CC(CC(C3)C1)C2)c1ccccc1[N+](=O)[O-] [16a, N-(adamantan-1-yl)-2-nitrobenzamide] | – | – | – | >100 µM | –

From paper PMC9865139 (Viruses, 2022)
